# US20120263732A1, “CD40 ANTIBODY FORMULATION AND METHODS” (PFIZER INC., priority 2003, published 2012)
# Legend:
# [1] = Primate anti-human antibody (PAHA) response; assay type: in vivo, cynomolgus monkeys; settings: all monkeys in the 3, 5, and 10 mg/kg dose groups; 14 to 28 days following administration
# Method: The observed dose-dependent clearance may be in part due to the binding of 21.4.1 to CD40 receptors that are widely expressed in normal tissues and the subsequent internalization and elimination of the antibody-receptor complex. Development of primate anti-human antibody (PAHA) response may also contribute to the accelerated clearance in some monkeys. PAHA was evaluated only after individual serum concentrations of 21.4.1 reached the lower limit of quantitation (LLOQ, 0.03 μg/mL) since the presence of 21.4.1 in test serum interferes with the assay for PAHA. Anti-21.4.1 antibodies were detected in all monkeys in the 3, 5, and 10 mg/kg dose groups at 14 to 28 days following administration of the antibody.
# [2] = system: CD40(−) erythroleukemic tumor, K562; test: CD40(−) K562 erythroleukemic tumor growth in SCID-beige mice; assay type: in vivo, human tumor in SCID-beige mice
# Method: The effects of a CD40 antibody (21.4.1) on the growth of CD40(−) tumors (e.g., erythroleukemia and colon carcinoma) were examined. In particular, K562 tumors were chosen to assess the efficacy of 21.4.1 against a CD40(−) low immunogenic (class I and II negative) tumor.
# SCID-beige mice were injected SC with the CD40(−) erythroleukemic tumor, K562 (ATCC CCL-243) alone or in the presence of human peripheral blood T cells and DCs. Animals received a single IP injection of 21.4.1 either at the time of tumor injection or 5 days later using various dose levels.
# cynomolgus B-cells = test: Pharmacodynamics: B-cell surface marker upregulation after IV dosing (flow cytometry); assay type: in vivo, cynomolgus monkeys
# Method: A CD40 antibody (21.4.1) was administered intravenously at various doses (1 mg/kg n=4, 3 mg/kg n=4, 5 mg/kg n=2 and 10 mg/kg n=2) to cynomolgus monkeys. Heparinized blood was drawn from the monkeys at various time points pre- and postdose. The blood was aliquoted and stained. Data were acquired using a Becton Dickinson FACSCalibur and analyzed with CellQuest software. Results were calculated as fold increases in median fluorescence intensity as compared to pre-dose values.
# breast tumor, BT 474 = test: Established BT 474 breast tumors: antibody and/or cisplatin; assay type: in vivo, human tumor in SCID-beige mice; settings: single IP injection once tumors reached 200 mm^2; antibody 1 mg/kg, cisplatin 2.5 mg/kg; Day 84
# Method: The therapeutic effects of an anti-CD40 antibody (21.4.1) in preventing the growth of human breast tumors alone and in the presence of cisplatin was examined.
# SCID-beige mice were injected SC with the breast tumor, BT 474. The antibody (1 mg/kg, IP) and/or cisplatin (2.5 mg/kg, IP) were administered as a single injection once tumors reached a size of 200 mm^2. Tumor growth was measured on Day 84 after challenge.
# [3] = system: lymph node cells obtained from cancer patients; test: IFNγ producing cells by ELISPOT in lymph node cell cultures stimulated with tumor antigen; assay type: cell-based, human; settings: antibody 1 μg/mL (6.7 nM); ELISPOT following restimulation
# Excerpt: (§1) Effects of a human anti-CD40 antibody (21.4.1) on lymph node cells obtained from cancer patients stimulated with autologous tumor cells was examined.
# (§2) Lymph node cells and tumors were collected from patients with renal cell carcinoma, non-small cell lung cancer, transitional cell carcinoma of the bladder, colon cancer, prostate cancer, and head and neck cancer. The lymph node cells were placed into culture together with irradiated collagenase treated tumors (recovered from the same patient) in the presence or absence of 21.4.1 (1 μg/mL; 6.7 nM). Proliferation was assessed using ^3H-thymidine 96 hours later. The number of INFγ producing cells was assessed by ELISPOT, following restimulation.
# [4] = system: CD40(+) Raji B cell lymphoma; test: CD40(+) Raji B cell lymphoma growth in SCID-beige mice; assay type: in vivo, human tumor in SCID-beige mice
# Method: SCID-beige mice were injected subcutaneously with the CD40(+) Raji B cell lymphoma (ATCC CCL-86) (SC) followed by a single dose of 21.4.1 (IP) at the time of tumor injection. Some animals were also injected with human T cells and DC. Tumor growth was assessed on Day 21.
# [5] = system: Fc receptors (FcR) on cynomolgus peripheral blood leukocytes; test: 125I-antibody binding to Fc receptors on cynomolgus leukocytes; settings: 125I-labelled antibody; 4° C., sodium azide; 21.4.1: excess unlabeled human IgG2 competitor, n=4
# Method: The binding of an anti-CD40 antibody (21.4.1) to Fc receptors on human and cynomolgus leukocytes was examined.
# (§3) The binding of 21.4.1 to Fc receptors (FcR) on human or cynomolgus peripheral blood leukocytes was determined by using ^125I-21.4.1 and a human IgG1 control mAb. Human leukocytes from normal donors or cynomolgus leukocytes were isolated from whole blood using plasma gel and washed thoroughly to allow dissociation of receptor-bound serum immunoglobulins. Centrifugation through a sucrose cushion was used to separate cell-bound and free antibodies. Studies were performed at 4° C. in the presence of sodium azide to prevent receptor internalization.
# (§4) 21.4.1 was tested for specific binding to FcR by using excess unlabeled human IgG2 isotype matched antibody as a competitor. ^125I-21.4.1 specific binding to FcR on human leukocytes (n=5 donors) was −1.0±8.5%, and specific binding to FcR on cynomolgus leukocytes (n=4) was 15±13%. […] The specific binding of the IgG1 control antibody to FcR on human and cynomolgus leukocytes accounted for 56% and 51% of the total bound radioactivity, respectively.
# [6] = system: CD40 receptors on cynomolgus leukocytes; test: 125I-21.4.1 binding to CD40 receptors on cynomolgus leukocytes; settings: 500-fold excess unlabeled 21.4.1; total % specific binding minus % binding to FcR
# Method: as §3, §4
# [7] = system: lymph node cells obtained from cancer patients; test: Proliferation of cancer patients' lymph node cells stimulated with autologous tumor cells (3H-thymidine); assay type: cell-based, human; settings: antibody 1 μg/mL (6.7 nM); 3H-thymidine 96 hours later
# Excerpt: as §1, §2
# [8] = biological target: T1, CD40 receptors on human leukocytes (Homo sapiens, UniProt P25942); test: 125I-21.4.1 binding to CD40 receptors on human leukocytes; settings: 500-fold excess unlabeled 21.4.1; total % specific binding minus % binding to FcR
# T1 construct: Human leukocytes from normal donors or cynomolgus leukocytes were isolated from whole blood; endogenous in cells; host or cells: human peripheral blood leukocytes from normal donors
# T1 sequence (P25942 21-277): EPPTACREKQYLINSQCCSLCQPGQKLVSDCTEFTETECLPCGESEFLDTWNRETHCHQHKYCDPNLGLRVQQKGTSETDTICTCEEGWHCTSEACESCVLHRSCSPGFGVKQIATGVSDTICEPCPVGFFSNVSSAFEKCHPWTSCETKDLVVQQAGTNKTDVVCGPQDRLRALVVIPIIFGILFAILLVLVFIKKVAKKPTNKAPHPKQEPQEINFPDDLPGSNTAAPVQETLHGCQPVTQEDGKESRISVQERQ
# Method: as §3, §4
substance,measurement,setting,value
21.4.1: human agonist anti-CD40 antibody; amino acid sequences SEQ ID NOs:5-8; hybridoma deposit PTA-3605,anti-21.4.1 antibodies (PAHA),[1],detected
same,amount to cause a 50% inhibition of tumor growth (IC50),"[2]; K562 with human T cells and DC, single IP injection, Day 21",0.005 mg/kg
same,growth of K562 tumor,[2]; in the absence of immune cells,not inhibited
same,"CD23 expression on B-cells, increase vs pre-dose","cynomolgus B-cells; 24 hours after dosing, 3 mg/kg and 10 mg/kg IV",≥ 20 fold
same,dose producing a saturating pharmacodynamic response in cynomolgus B-cells,"cynomolgus B-cells; IV, MHC Class II and CD23 on CD20+ cells",1 mg/kg
same,CD71 (transferrin receptor) level,cynomolgus B-cells; after IV dosing,moderate upregulation
same,CD80 expression,cynomolgus B-cells; after IV dosing,did not change significantly
same,CD86 costimulatory molecule level,cynomolgus B-cells; after IV dosing,moderate upregulation
same,"upregulation of both surface markers (MHC Class II, CD23) persisted, increase",cynomolgus B-cells; while 21.4.1 levels remained above 1 μg/ml,≥ 2 fold
same,"tumor growth, single agent","breast tumor, BT 474",prevented tumor growth
same,number of IFNγ+ positive T cells,[3],enhanced
same,anti-tumor activity against CD40(+) tumors when immune cells were present,[4]; Raji,enhanced
same,amount necessary to cause a 50% inhibition of tumor growth,"[4]; Raji co-injected with immune cells (human T cells and DC), single IP dose, Day 21",0.001 mg/kg
same,amount to cause a 50% inhibition of tumor growth (IC50),"[4]; Raji in the absence of immune cells, single IP dose, Day 21",0.02 mg/kg
same,decrease of the 50% inhibitory amount when immune cells co-injected,"[4]; Raji, with vs without immune cells",20 fold
same,specific binding to FcR on cynomolgus leukocytes,[5],15±13%
same,specific binding to CD40 receptors on cynomolgus leukocytes,[6],67%
same,"proliferation of lymph node cells in response to tumor antigen, enhancement",[7],3-4 fold
same,specific binding to CD40 receptors on human leukocytes,[8],49%
